Series [1] has as its system PC12-ND6 cells. In words: Mitochondrial mass (mito-GFP live cell microscopy, MTG/MTR flow cytometry). The format is cell-based. Here is the method: PC12-ND6 cells were transfected with the mito-GFP vector prior to treatment with NaBt (5 mM) for the indicated time points. Mitochondria were visualized by live cell microscopy; scale bar=5 μm.
FIG. 7A-7F show images from microscopy and graphs showing NaBt increases mitochondrial mass. (A) Live cell confocal microscopy of E17.5 hippocampal neurons; high magnification in inset; scale bar=5 (B) Quantitative analysis of the mitochondrial biomass in E17.5 neurons using an anti-CoxVα antibody; *p<0.001. (C) Live cell confocal microscopy of PC12-ND6 cells; high magnification in inset; scale bar=5 (D) Flow cytometric analysis of mitochondrial mass; *p<0.001. (E) Confocal microscopy of E17.5 brains from E12.5 pregnant dams treated with PBS (sham) or NaBt; scale bar=20 (F) Quantitative analysis of mitochondrial mass; *p<0.001.
Experimental approaches. Five distinct molecular tools were used to investigate mitochondrial biogenesis: 1) the mitochondrial-specific dyes, MitoTracker® Green (MTG) and MitoTracker® Red (MTR); 2) the mito-GFP or mito-dsRed vector to fluorescently label mitochondria; 3) antibodies against mtDNA, COXVα, or SOD2; 4) the fluorescent PicoGreen® dye labeling mtDNA; and 5) quantitative PCR to determine mtDNA copy number.
NaBt increases the mitochondrial biomass of neuronal cells in vitro and in vivo. To investigate the effect of NaBt on mitochondrial mass, PC12-ND6 cells were transfected with the mito-GFP vector before performing a time course analysis of NaBt (5 mM) treatment.
The effect of NaBt was investigated in embryonic neuronal progenitor cells, E17.5 hippocampal neurons, which were transfected with the mito-GFP vector and then exposed to various concentrations of NaBt. […] Therefore, all subsequent treatment of E17.5 hippocampal neurons with NaBt was performed in the presence of 2 mM. […] Flow cytometric analysis using MTG- or MTR-labeled cells corroborated the NaBt-mediated increase in mitochondrial mass (FIG. 7D).
For orientation: In flow cytometry, cells or beads pass a laser one at a time.

Series [2] has as its system E17.5 hippocampal neurons. In words: Neuronal stage 3 frequency with chloramphenicol and NaBt. The format is cell-based. The source says: FIG. 16A-16I are images from microscopy and a graph showing that Pre-treatment of E17.5 hippocampal neurons with NaBt protects against chloramphenicol-induced loss of neuronal differentiation. (A-D) Confocal micrographs of E17.5 hippocampal neurons exposed to different concentrations of chloramphenicol at 2DIV and labeled with anti tubulin antibody (red) and nuclear counterstain DAPI (blue) at 3DIV. Scale bar represents 10 μm. (E-H) Confocal micrographs of E17.5 hippocampal neurons treated with NaBt (2 mM) at 1DIV prior to exposure to different concentrations of chloramphenicol at 2DIV and labeled with anti tubulin antibody (red) and nuclear counterstain DAPI (blue) at 3DIV. Scale bar represents 10 μm. (I) Graph of E17.5 β-III^+ hippocampal neurons at the neuronal stage 3. Mean±S.D. (n=250 cells; compared to untreated control *p=0.0001; compared to the corresponding non-NaBt treated sample **p=0.0001; compared to non-NaBt treated cells exposed to Cm at 30 μM‡p=0.007).
The consequences of chloramphenicol exposure on untreated or NaBt-treated E17.5 hippocampal neurons was examined. At 1DIV, dissociated E17.5 hippocampal neurons were switched to differentiation medium in the absence or presence of NaBt (2 mM) for 24 hours before being treated with increasing concentrations of chloramphenicol (0, 15, 30, and 60 μM) for 24 hours. At 3DIV, their phenotypic differentiation was examined by immunocytochemistry using an antibody against the pan-neuronal marker β-III tubulin and quantified the percent of neurons having reached the developmental stage 3 for each experimental condition. As expected, only half of untreated neurons reached stage 3 in the absence of NaBt, while more than 90% of NaBt-treated neurons achieved such degree of differentiation, thereby forming an elaborate neuritic network (FIGS. 16A, E, and I).

Series [3] has as its system PC12-ND6 cells. In words: NGF (100 ng/ml)-mediated neurite outgrowth after chloramphenicol. The format is cell-based. The source says: FIG. 15A-15C are images from microscopy and a graph showing that Pre-treatment of PC12-ND6 cells negates the inhibitory effect of chloramphenicol on NGF-mediated neuronal differentiation. (A) Confocal micrographs of untreated and Cm-treated PC12-ND6 cells transfected with the vector mito-GFP and exposed to NGF. Scale bar represents 20 μm. (B) Confocal micrographs of NaBt pre-treated PC12-ND6 cells transfected with the vector mito-GFP and exposed to chloramphenicol prior to NGF treatment. Scale bar represents 20 μm. (C) Graph of average total neurite length. Mean±SEM (n=50 cells; compared to untreated PC12-ND6 cells *p=0.0001; compared to non-NaBt-treated PC12-ND6 cells with corresponding Cm concentration **p=0.0001).
Based on the results that NaBt endows PC12-ND6 cells with increased mitochondrial mass through biogenesis, resulting in accelerated neuronal differentiation, it was examined whether exposure to NaBt for three days could confer protection to chloramphenicol-mediated inhibition of neuronal differentiation upon NGF signaling.

The test system of series [4] is mouse models of neurodegenerative diseases and ischemia/stroke. To be noted: in vivo; cited from earlier work.
The subject of a further series is MELAS fibroblasts. As to the kind of experiment: Affymetrix genome-wide microarray analysis. The format is cell-based, human. The source says:
An embodiment of the novel pharmacological approach described herein uses butyrates to promote nuclear and mitochondrial metabolic reprogramming by boosting mitochondrial biogenesis and maximizing residual ATP output. […] Thus, the data validate a pharmaco-epigenomic approach and establish proof-of-principle. It was hypothesized that butyrates can augment the functional mitochondrial mass in skin fibroblasts from 20 MELAS patients. Fibroblasts from this number of patients, each with different nuclear backgrounds and heteroplasmic loads, will ensure the findings extend beyond a case study into a statistically sound and broadly applicable report. It will be tested whether butyrates: (Aim 1) induce favorable mitochondrial biogenesis, thereby shifting heteroplasmy toward healthy mitochondria; and (Aim 2) maximize ATP output via optimization of OXPHOS activity and a metabolic shift toward fatty acid beta oxidation. It is anticipated to identify the most promising butyrate candidate for alleviating the symptoms of the MELAS disease. The proposed study will set the stage for future clinical studies with the Children's National Medical Center and the North American Mitochondrial Disease Consortium, in concordance with the PAR-13-023 issued by the NINDS Office of Translational Research for R21 exploratory projects.

Setting [5] is: flow cytometry, NaBt-treated vs control.

As to `CCCC(=O)[O-].[Na+]` [NaBt, sodium butyrate], the “time of maximal increase of the mitochondrial biomass” value in the series on PC12-ND6 cells [1] (NaBt 5 mM, mito-GFP time course) is recorded as “after three days”. In the series on PC12-ND6 cells [1] (setting [5]), the “increase in fluorescence intensity, MTR staining” value worked out at 3.5 fold and the “increase in mitochondrial mass, MTG staining” value is on record as “two-fold”. The “frequency of advanced neuronal stage with NaBt pre-treatment” value in series [2] (NaBt 2 mM prior to chloramphenicol up to 60 μM) is given as “sustained the frequency of advanced neuronal stage”. For the same molecule, in series [2] (NaBt 2 mM, no chloramphenicol, 3DIV), the “percent of neurons reaching stage 3” value is recorded as “more than 90%”. In addition, the “mitochondrial density in processes” value in the series on PC12-ND6 cells [3] (NaBt pre-treated, 60 μM chloramphenicol) was “retained a high mitochondrial density”. For the same molecule, in the series with PC12-ND6 cells [3] (NaBt three days, highest concentration of chloramphenicol, NGF), the “total neurite length with NaBt pre-treatment” value is recorded as “remained unaffected”. In addition, the “effects in mouse models” value in series [4] was “stimulates neurogenesis, enhances synaptic plasticity and memory, while preventing neuronal death”. Moreover, the “increased expression of OXPHOS genes” value with MELAS fibroblasts (30 genes, p<0.05) was at least 1.5 fold. Moreover, in the series with MELAS fibroblasts (NaBt), the “nuclear genes significantly regulated” value stood at 5% and the off-target effects result is listed as “limited off-target effects”. In the series with MELAS fibroblasts (NaBt-treated), the “expression of nuclear genes involved in mitochondrial morphology and fusion-fission events” value is reported as “increased expression levels”; the “genes known to promote FAO” value is given as “ten upregulated genes”. Besides, the “number of OXPHOS genes with increased expression” value in the series with MELAS fibroblasts (subunits of complexes II, III, IV, V, p<0.05) was 30.

These data come from patent US10272056B2, “Treatment for mitochondrial diseases” (The George Washington University a Congressionally …, priority 2015, dated 2019).
